This is an account of results in patent publication US20260365662A1, “ISOANDROGRAPHOLIDE ANALOGS AND METHOD FOR TREATMENT USING THE SAME” (Enveda Therapeutics, Inc., priority 2023, published 2026).

This test has as its system female BALB/c mouse. In words: MC-903 induced atopic dermatitis model, prophylactic (Example 12). The format is in vivo. Particulars: for immune cell infiltration: histopathology, back skin; for IL-31 expression: itch marker. How it is done: Experimental details: Preclinical animal model of atopic dermatitis was developed by MC-903, a vitamin-D analogue. In the current study, the test item Compound 2 was screened to evaluate its efficacy in MC-903 induced AD model. 2 nmol of MC-903 was topically applied to 8-10 weeks old female BALB/c mouse from G2-G7 group at a volume of 50 μl/mouse on back skin on every alternate day for 14 days to induced disease. For the G1 group, (Normal+ethanol control) the same volume of ethanol that was used to solubilize MC-903 was applied. Clobetasol (0.05%, 20 mg) was applied topically once a day to G3 group animals. Compound 2 was administered twice a day to respective treatment groups (G4-G7) for 14 days. On the day of MC-903 administration, test compounds were dosed one hour prior to MC-903 insult. Clinical scores to assess the disease intensity were measured from visual examination for erythema, scaling and back skin thickness using dial caliper. All the scores were carried by blinded observers to treatment groups. Cumulative dermatitis severity scores were calculated by adding up the individual scores of erythema, scaling & thickness. On day-14 of the study, all animals were terminally bled under mild anesthesia followed by humane sacrifice and back skin tissue was dissected. Required skin tissue samples were collected in fixative and part of the tissue was flash-frozen in liquid nitrogen and stored at −80 °C. Collected tissue samples were processed and used for biomarker analysis using gene and protein expression analysis by qPCR & ELISA, pharmacokinetic analysis by LC-MS and histopathology studies.

The mark [1] stands for this setting: twice a day, 14 days, vs MC-903 vehicle control.

`C[C@@]12CCC(=O)N[C@@](C)(CO)[C@H]1CC[C@@]1(C)O[C@H](C3=CCOC3=O)C[C@@H]21` [Compound 2, (2S,3aR,5aS,6R,10aR,10bS)-6-(hydroxymethyl)-3a,6,10a-trimethyl-2-(2-oxo-2,5-dihydrofuran-3-yl) dodecahydro-8H-benzofuro[5,4-c]azepin-8-one]: the immune cell infiltration result is “significantly reduced”. Also, the neutrophil infiltration result (FIG. 12C) is “robustly reduces”. Moreover, for the setting “FIG. 12G”, the “early barrier alarmins in skin” value is given as “reduces early barrier alarmins”. The tissue cytokine expression entry (FIG. 12H) was “impacts tissue cytokine expression”. Besides, where the note is “compared with high-potency topical corticosteroids”, the “improvement of MC-903-induced atopic dermatitis” value is “comparable to high-potency topical corticosteroids”. Also, under “listed as compound 2”, the immune cell infiltration result was “reduced dose-dependent immune cell infiltration”. For the same molecule, for the setting “hyperkeratosis, parakeratosis, lengthening and clubbing of rete ridges, vs MC-903 vehicle control”, the “histopathological changes and final histopathology scores” value is reported as “significantly reduced”. In addition, where the note is “prophylactic, back skin tissue”, the IL-31 expression entry is “significantly reduced”, the IL-4 expression entry is reported as “significantly reduced”, the IL-13 expression result was “significantly reduced” and the Krt6a expression result is reported as “significantly reduced”. The “Tissue TSLP expression” value (prophylactic, back skin tissue) is given as “significantly reduced”. Moreover, the IL-31 expression entry (prophylactic, back skin tissue, listed as compound 2) was “decreases IL-31 expression”. Where the note is “neutrophil marker, back skin tissue”, the NGAL levels entry is given as “significantly reduced”. Where the note is “neutrophil marker, back skin tissue, listed as compound 2”, the NGAL levels result was “significantly reduces NGAL levels”. Further, for the setting “neutrophil marker, prophylactic, back skin tissue”, the Lipocalin-2 expression entry is given as “significantly reduced”. Under setting [1], the dermatitis severity scores entry is listed as “dose dependent decrease” and the epidermal thickness result was “significantly reduced”. Besides, the epidermal thickness result (twice a day, 14 days, vs MC-903 vehicle control, listed as compound 2) is reported as “robustly reduces epidermal thickness”.
